Source: PubChem BioAssay (NCI)
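Values below derive from 48-hour exposures of cells grown in 96-well plates, with endpoints linearly interpolated between the two concentrations bracketing the appropriate inhibition level. TGI is the concentration that stops growth completely.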

Tests used:
Test in all cases: NCI-60 cell line screen, 48 h
786-0 renal = system: 786-0 renal
UO-31 renal = system: UO-31 renal
MOLT-4 leukemia = system: MOLT-4 leukemia
RXF 393 renal = system: RXF 393 renal
CAKI-1 renal = system: CAKI-1 renal
OVCAR-4 ovarian = system: OVCAR-4 ovarian
MALME-3M melanoma = system: MALME-3M melanoma
COLO 205 colon = system: COLO 205 colon
UACC-62 melanoma = system: UACC-62 melanoma
SK-MEL-2 melanoma = system: SK-MEL-2 melanoma
MCF7 breast = system: MCF7 breast
SF-295 CNS = system: SF-295 CNS
SNB-19 CNS = system: SNB-19 CNS
PC-3 prostate = system: PC-3 prostate
OVCAR-5 ovarian = system: OVCAR-5 ovarian
NCI-H460 lung = system: NCI-H460 lung
RPMI-8226 leukemia = system: RPMI-8226 leukemia
SK-MEL-28 melanoma = system: SK-MEL-28 melanoma
ACHN renal = system: ACHN renal
T-47D breast = system: T-47D breast
OVCAR-3 ovarian = system: OVCAR-3 ovarian
HT29 colon = system: HT29 colon
SW-620 colon = system: SW-620 colon
OVCAR-8 ovarian = system: OVCAR-8 ovarian
M14 melanoma = system: M14 melanoma
MDA-N = system: MDA-N
TK-10 renal = system: TK-10 renal
BT-549 breast = system: BT-549 breast
MDA-MB-435 = system: MDA-MB-435
HCT-15 colon = system: HCT-15 colon
IGROV1 ovarian = system: IGROV1 ovarian
SNB-75 CNS = system: SNB-75 CNS
K-562 leukemia = system: K-562 leukemia
A549 NSCLC = system: A549 NSCLC
HOP-62 NSCLC = system: HOP-62 NSCLC
SF-539 CNS = system: SF-539 CNS
SN12C renal = system: SN12C renal
SK-MEL-5 melanoma = system: SK-MEL-5 melanoma
DU-145 prostate = system: DU-145 prostate
U251 CNS = system: U251 CNS
HS 578T breast = system: HS 578T breast
HOP-92 NSCLC = system: HOP-92 NSCLC
HCC-2998 colon = system: HCC-2998 colon
SF-268 CNS = system: SF-268 CNS
SR leukemia = system: SR leukemia
EKVX NSCLC = system: EKVX NSCLC
HCT-116 colon = system: HCT-116 colon
SK-OV-3 ovarian = system: SK-OV-3 ovarian
NCI-H23 lung = system: NCI-H23 lung
NCI-H226 lung = system: NCI-H226 lung
NCI/ADR-RES ovarian = system: NCI/ADR-RES ovarian
KM12 colon = system: KM12 colon
LOX IMVI melanoma = system: LOX IMVI melanoma
UACC-257 melanoma = system: UACC-257 melanoma
NCI-H522 lung = system: NCI-H522 lung
MDA-MB-231 breast = system: MDA-MB-231 breast
CCRF-CEM leukemia = system: CCRF-CEM leukemia
HL-60(TB) leukemia = system: HL-60(TB) leukemia
A498 renal = system: A498 renal

What does the source list for `CC1=C(C(=O)OC(C)C)C(c2cccc([N+](=O)[O-])c2)C(C(=O)OC(CO[N+](=O)[O-])CO[N+](=O)[O-])=C(C)N1` (stereo not given)?
TGI (786-0 renal): > 100 µM; TGI (UO-31 renal): > 50.1 µM; TGI (MOLT-4 leukemia): 3.76 µM; TGI (RXF 393 renal): 58.1 µM; TGI (CAKI-1 renal): > 100 µM; TGI (OVCAR-4 ovarian): 20.9 µM; TGI (MALME-3M melanoma): > 100 µM; TGI (COLO 205 colon): 8.39 µM; TGI (UACC-62 melanoma): 9.58 µM; TGI (SK-MEL-2 melanoma): 5.61 µM; TGI (MCF7 breast): 1.12 µM; TGI (SF-295 CNS): 0.991 µM; TGI (SNB-19 CNS): 24.6 µM; TGI (PC-3 prostate): > 32.6 µM; TGI (OVCAR-5 ovarian): 21.5 µM; TGI (NCI-H460 lung): > 36.7 µM; TGI (RPMI-8226 leukemia): 3.6 µM; TGI (SK-MEL-28 melanoma): 33.7 µM; TGI (ACHN renal): > 100 µM; TGI (T-47D breast): > 100 µM; TGI (OVCAR-3 ovarian): > 22.1 µM; TGI (HT29 colon): 21 µM; TGI (SW-620 colon): > 100 µM; TGI (OVCAR-8 ovarian): > 100 µM; TGI (M14 melanoma): 12.7 µM; TGI (MDA-N): 8.71 µM; TGI (TK-10 renal): > 100 µM; TGI (BT-549 breast): 14.7 µM; TGI (MDA-MB-435): 15.3 µM; TGI (HCT-15 colon): 19 µM; TGI (IGROV1 ovarian): > 87.6 µM; TGI (SNB-75 CNS): 43.3 µM; TGI (K-562 leukemia): > 100 µM; TGI (A549 NSCLC): > 100 µM; TGI (HOP-62 NSCLC): 16.5 µM; TGI (SF-539 CNS): 16.3 µM; TGI (SN12C renal): > 34 µM; TGI (SK-MEL-5 melanoma): 4.13 µM; TGI (DU-145 prostate): > 100 µM; TGI (U251 CNS): 6.97 µM; TGI (HS 578T breast): > 41.9 µM; TGI (HOP-92 NSCLC): 7.38 µM; TGI (HCC-2998 colon): 18.3 µM; TGI (SF-268 CNS): 22.7 µM; TGI (SR leukemia): 15.6 µM; TGI (EKVX NSCLC): > 27.7 µM; TGI (HCT-116 colon): 9.36 µM; TGI (SK-OV-3 ovarian): > 100 µM; TGI (NCI-H23 lung): > 100 µM; TGI (NCI-H226 lung): 30.6 µM; TGI (NCI/ADR-RES ovarian): > 25.2 µM; TGI (KM12 colon): 12.9 µM; TGI (LOX IMVI melanoma): 11 µM; TGI (UACC-257 melanoma): 13.3 µM; TGI (NCI-H522 lung): 6.77 µM; TGI (MDA-MB-231 breast): > 20.7 µM; TGI (CCRF-CEM leukemia): > 20.1 µM

What does the source list for `Cc1ccc2c(=O)c3c(O)c4c(cc3n(C)c2c1)OC(C)(C)C=C4`?
TGI (786-0 renal): > 10 µM; TGI (MOLT-4 leukemia): > 10 µM; TGI (RXF 393 renal): > 10 µM; TGI (CAKI-1 renal): > 10 µM; TGI (OVCAR-4 ovarian): > 10 µM; TGI (MALME-3M melanoma): > 10 µM; TGI (COLO 205 colon): > 10 µM; TGI (UACC-62 melanoma): > 10 µM; TGI (SK-MEL-2 melanoma): > 10 µM; TGI (MCF7 breast): > 10 µM; TGI (SF-295 CNS): > 10 µM; TGI (HL-60(TB) leukemia): > 10 µM; TGI (SNB-19 CNS): > 10 µM; TGI (PC-3 prostate): > 10 µM; TGI (OVCAR-5 ovarian): > 10 µM; TGI (NCI-H460 lung): > 10 µM; TGI (RPMI-8226 leukemia): > 10 µM; TGI (SK-MEL-28 melanoma): > 10 µM; TGI (ACHN renal): > 10 µM; TGI (T-47D breast): > 10 µM; TGI (OVCAR-3 ovarian): > 10 µM; TGI (HT29 colon): > 10 µM; TGI (A498 renal): > 10 µM; TGI (SW-620 colon): > 10 µM; TGI (OVCAR-8 ovarian): > 10 µM; TGI (M14 melanoma): > 10 µM; TGI (MDA-N): > 10 µM; TGI (TK-10 renal): > 10 µM; TGI (BT-549 breast): > 10 µM; TGI (MDA-MB-435): > 10 µM; TGI (HCT-15 colon): > 10 µM; TGI (IGROV1 ovarian): > 10 µM; TGI (SNB-75 CNS): > 10 µM; TGI (K-562 leukemia): > 10 µM; TGI (A549 NSCLC): > 10 µM; TGI (HOP-62 NSCLC): > 10 µM; TGI (SF-539 CNS): > 10 µM; TGI (SN12C renal): > 10 µM; TGI (SK-MEL-5 melanoma): > 10 µM; TGI (DU-145 prostate): > 10 µM; TGI (U251 CNS): > 10 µM; TGI (HS 578T breast): > 10 µM; TGI (HOP-92 NSCLC): > 10 µM; TGI (HCC-2998 colon): > 10 µM; TGI (SF-268 CNS): > 10 µM; TGI (SR leukemia): > 10 µM; TGI (EKVX NSCLC): > 10 µM; TGI (HCT-116 colon): > 10 µM; TGI (SK-OV-3 ovarian): > 10 µM; TGI (NCI-H23 lung): > 10 µM; TGI (NCI-H226 lung): > 10 µM; TGI (NCI/ADR-RES ovarian): > 10 µM; TGI (KM12 colon): > 10 µM; TGI (LOX IMVI melanoma): > 10 µM; TGI (UACC-257 melanoma): > 10 µM; TGI (NCI-H522 lung): > 10 µM; TGI (MDA-MB-231 breast): > 10 µM; TGI (CCRF-CEM leukemia): > 10 µM
